Results on 23 compounds are retold here after PubChem BioAssay (NCI).

Test systems include OVCAR-4 ovarian; A498 renal; HOP-92 NSCLC; OVCAR-5 ovarian; MDA-MB-435; SF-268 CNS; DU-145 prostate; NCI-H226 lung; SR leukemia; SF-539 CNS.
Common to all, as to assay: inhibition of tumour cell growth, NCI panel, 48 h

Each structure is given as a SMILES string.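 Values below derive from 48-hour exposures of cells grown in 96-well plates, with endpoints linearly interpolated between the two concentrations bracketing the appropriate inhibition level. At the GI50, growth is halved. TGI: total growth inhibition.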

With `NS(=O)(=O)c1ccc(C(=O)O)cc1`, the TGI in the assay on OVCAR-4 ovarian, in the assay with A498 renal, in the assay with HOP-92 NSCLC, in the assay with OVCAR-5 ovarian, in the assay on MDA-MB-435 and in the assay on SF-268 CNS was > 100 µM throughout. Also, in the assay on DU-145 prostate, the TGI was > 100 µM.
Regarding `ClCCN(CC#CCCCC#CCN(CCCl)CCCl)CCCl`, the TGI in the assay with NCI-H226 lung amounted to 37.2 µM; with OVCAR-4 ovarian, 61.2 µM; in the assay with A498 renal it was 26.4 µM; with SR leukemia it was 7.66 µM; in the assay with HOP-92 NSCLC, 43.1 µM; with SF-539 CNS, 27 µM. In addition, the TGI with OVCAR-5 ovarian came to 26 µM; in the assay on SF-268 CNS, 33.5 µM.
On to `CC1(C)CCc2cc3c(cc2O1)OC(C)(C)CC3=O`, for which the TGI in the assay on NCI-H226 lung was > 100 µM; in the assay on OVCAR-4 ovarian, > 100 µM; in the assay with SR leukemia, > 100 µM; in the assay with HOP-92 NSCLC it was 70.7 µM; in the assay on SF-539 CNS, > 100 µM; with OVCAR-5 ovarian it was > 100 µM. In addition, the TGI in the assay with SF-268 CNS is > 100 µM.
As for `Cc1c2ccccc2c(CSC(=N)N)c2ccccc12`, the TGI in the assay on NCI-H226 lung worked out at 0.679 µM; in the assay with OVCAR-4 ovarian it was 0.514 µM; with A498 renal, 0.4 µM; in the assay with SR leukemia it was 0.0673 µM; in the assay on HOP-92 NSCLC it was 1.43 µM; in the assay with SF-539 CNS it was 0.419 µM. Also, the TGI in the assay on OVCAR-5 ovarian amounted to 1.13 µM; with MDA-MB-435 it was 0.44 µM; in the assay with SF-268 CNS, 1.33 µM; with DU-145 prostate, 0.406 µM.
On to `N=C(N)SC(c1ccccc1)c1ccccc1`, for which the TGI was 60.9 µM in the assay with NCI-H226 lung; 37.6 µM in the assay with OVCAR-4 ovarian; 36.6 µM in the assay with A498 renal; > 100 µM in the assay on SR leukemia; 22.9 µM in the assay on HOP-92 NSCLC; 37.7 µM in the assay on SF-539 CNS. The TGI in the assay on OVCAR-5 ovarian came out at 32.2 µM; with MDA-MB-435, 26.5 µM; with SF-268 CNS it was 78.5 µM; with DU-145 prostate, 25.4 µM.
In the case of `CC(C)(c1ccccc1)c1ccc(Oc2ccc3c(c2)-c2nc-3nc3[nH]c(nc4nc(nc5[nH]c(n2)c2ccc(Oc6ccc(C(C)(C)c7ccccc7)cc6)cc52)-c2cc(Oc5ccc(C(C)(C)c6ccccc6)cc5)ccc2-4)c2ccc(Oc4ccc(C(C)(C)c5ccccc5)cc4)cc32)cc1`, the TGI in the assay with A498 renal, in the assay with HOP-92 NSCLC, with SF-539 CNS and in the assay with OVCAR-5 ovarian was > 100 µM throughout.
Turning to `Cn1c(=O)c2c(nc(N3CCOCC3)n2CCCNCC(O)c2ccc(O)c(O)c2)n(C)c1=O` (stereo not drawn), the TGI in the assay on NCI-H226 lung, with OVCAR-4 ovarian, with A498 renal, in the assay with SR leukemia, with HOP-92 NSCLC and with SF-539 CNS was > 100 µM throughout. Also, the TGI with OVCAR-5 ovarian, in the assay with MDA-MB-435, with SF-268 CNS and in the assay with DU-145 prostate was > 100 µM throughout.
Regarding `CC(C)C(C)C(O)C(O)C(C)C1CCC2C3COC(=O)C4CC(O)C(O)CC4(C)C3CCC12C` (stereo not drawn), the TGI in the assay on NCI-H226 lung, with OVCAR-4 ovarian, in the assay with A498 renal, with HOP-92 NSCLC, in the assay with SF-539 CNS and with OVCAR-5 ovarian was > 100 µM throughout. Besides, the TGI with MDA-MB-435, in the assay on SF-268 CNS and with DU-145 prostate was > 100 µM throughout.
On to `CC1OC1P(=O)(O)O` (stereo not drawn), for which the TGI with OVCAR-4 ovarian, in the assay with A498 renal, in the assay with SR leukemia, in the assay on HOP-92 NSCLC, in the assay with OVCAR-5 ovarian and in the assay on MDA-MB-435 was > 100 µM each time. For the same compound, the TGI in the assay on SF-268 CNS and with DU-145 prostate was > 100 µM throughout.
`Cn1ncc2c(=O)[nH]c(-c3ccccc3)nc21`: the TGI in the assay with OVCAR-4 ovarian, with SF-539 CNS, in the assay on OVCAR-5 ovarian and in the assay on SF-268 CNS was > 100 µM each time.
Regarding `Cc1cc(N2CCCCC2)nc(NCc2cc(Nc3ccnc4cc(Cl)ccc34)ccc2F)n1`, the GI50 was 2.02 µM with NCI-H226 lung; 1.39 µM in the assay with OVCAR-4 ovarian; 0.178 µM in the assay on A498 renal; 1.94 µM with SR leukemia; 1.58 µM in the assay with SF-539 CNS; 1.64 µM in the assay with MDA-MB-435. Besides, the GI50 with SF-268 CNS is 1.35 µM; in the assay with DU-145 prostate it was 1.49 µM. Besides, the TGI is 4.57 µM with NCI-H226 lung; 2.95 µM in the assay with OVCAR-4 ovarian; 0.999 µM in the assay on A498 renal; 4.99 µM with SR leukemia; 3.04 µM in the assay with SF-539 CNS; 3.14 µM in the assay on MDA-MB-435. Also, the TGI in the assay on SF-268 CNS is 3.11 µM; in the assay on DU-145 prostate it was 3.14 µM.
For the compound `COc1ccc2c(c1)C(=O)c1c-2n(CCCCl)c(=O)c2cc([N+](=O)[O-])ccc12`, the GI50 in the assay on NCI-H226 lung was < 0.01 µM; in the assay with OVCAR-4 ovarian, 0.224 µM; with A498 renal, 1.39 µM; in the assay with SR leukemia it was < 0.0125 µM; with SF-539 CNS, 0.11 µM; with OVCAR-5 ovarian, 1.26 µM. Also, the GI50 in the assay with MDA-MB-435 is 0.985 µM; with SF-268 CNS, < 0.0262 µM; in the assay with DU-145 prostate, 0.0361 µM. Moreover, the TGI in the assay on NCI-H226 lung was > 100 µM; in the assay with OVCAR-4 ovarian, 33.6 µM; in the assay on SF-539 CNS, 0.456 µM; in the assay on OVCAR-5 ovarian, > 26.4 µM; in the assay on MDA-MB-435, 9.22 µM; in the assay on DU-145 prostate, > 100 µM.
As for `CCCCC1CCCCCCc2[nH]c(/C=C3\N=C(c4ccc[nH]4)C=C3OC)cc21` (stereo not drawn), the TGI in the assay on NCI-H226 lung turned out to be 3.27 µM; with OVCAR-4 ovarian, 4.23 µM; with A498 renal, 1.86 µM; in the assay on HOP-92 NSCLC it was 0.42 µM; in the assay on SF-539 CNS, 1.13 µM; with OVCAR-5 ovarian it was 2 µM. Further, the TGI is 0.403 µM in the assay on MDA-MB-435, 2.13 µM in the assay on SF-268 CNS and 3.96 µM in the assay on DU-145 prostate.
With `CC1(C)CCCC2(C)C3=C(CCC12)C(=O)OC3` (stereo not drawn), the TGI in the assay with NCI-H226 lung, with OVCAR-4 ovarian, in the assay on A498 renal, with SR leukemia, in the assay with HOP-92 NSCLC and with SF-539 CNS was > 100 µM each time. For the same compound, the TGI in the assay with OVCAR-5 ovarian, in the assay with MDA-MB-435, in the assay with SF-268 CNS and in the assay on DU-145 prostate was > 100 µM each time.
As for `COc1ccc(C(=O)NNC(=O)c2nsc3ccccc23)cc1`, the TGI in the assay on OVCAR-4 ovarian, in the assay with HOP-92 NSCLC, in the assay on SF-539 CNS, in the assay on OVCAR-5 ovarian and with SF-268 CNS was > 100 µM in each case.
In the case of `CCc1cc(C)cc2[n+]1CC=C2C`, the TGI in the assay with NCI-H226 lung, in the assay on OVCAR-4 ovarian, in the assay on HOP-92 NSCLC, in the assay with SF-539 CNS, in the assay with OVCAR-5 ovarian and with SF-268 CNS was > 100 µM in each case.
With `COC(=O)C12OCC34C(CC5C(C)C6=CC(=O)OC6=CC5(C)C3C(O)C1O)OC(=O)C(OC(C)=O)C24` (stereo not drawn), the TGI came out at 53.2 µM in the assay with NCI-H226 lung; 41.2 µM in the assay with OVCAR-4 ovarian; 43.9 µM in the assay on A498 renal; 64.6 µM with SR leukemia; 35.2 µM in the assay on HOP-92 NSCLC; 34 µM in the assay with SF-539 CNS. For the same compound, the TGI came to 44.2 µM in the assay on OVCAR-5 ovarian and 40.1 µM in the assay with SF-268 CNS.
Take `CCCCCCCCCCCCCCC(C(=O)[O-])[n+]1ccccc1` (stereo not drawn): the TGI in the assay on NCI-H226 lung, in the assay on OVCAR-4 ovarian, in the assay with A498 renal, in the assay with SR leukemia, in the assay with HOP-92 NSCLC and with SF-539 CNS was > 100 µM each time. Moreover, the TGI in the assay on OVCAR-5 ovarian, in the assay with MDA-MB-435, in the assay on SF-268 CNS and with DU-145 prostate was > 100 µM each time.
On to `NCc1ccc(O)c(O)c1O`, for which the TGI is > 66.7 µM with NCI-H226 lung; 41 µM with OVCAR-4 ovarian; > 100 µM in the assay on A498 renal; 62 µM with SR leukemia; > 96 µM in the assay on HOP-92 NSCLC; > 62.5 µM in the assay on SF-539 CNS. The TGI in the assay with OVCAR-5 ovarian is 40.5 µM; in the assay with MDA-MB-435, 32.7 µM; in the assay with SF-268 CNS, 61.6 µM; with DU-145 prostate, > 100 µM.
As to `Cc1nc2ccccc2c(=O)n1Nc1ccc(C(=O)O)cc1`, the TGI in the assay on NCI-H226 lung, with OVCAR-4 ovarian, with A498 renal, with HOP-92 NSCLC, in the assay on SF-539 CNS and in the assay with OVCAR-5 ovarian was > 100 µM throughout. Also, the TGI in the assay on SF-268 CNS was > 100 µM.
For `O=C(Nc1ccc(-n2ccc3c(NC(=O)c4ccccc4)ncnc32)cc1)Nc1ccc(Cl)c(C(F)(F)F)c1`, the GI50 with NCI-H226 lung is 2.39 µM; with OVCAR-4 ovarian, 1.57 µM; in the assay with A498 renal, 1.51 µM; with SR leukemia, 1.74 µM; with HOP-92 NSCLC, 1.41 µM; in the assay on SF-539 CNS it was 0.654 µM. The GI50 with OVCAR-5 ovarian is 1.66 µM; with MDA-MB-435, 1.85 µM; in the assay on SF-268 CNS, 2.02 µM; with DU-145 prostate, 2.12 µM. For the same compound, the TGI in the assay with NCI-H226 lung came to 7.06 µM; with OVCAR-4 ovarian, 3.48 µM; in the assay on A498 renal, 3.65 µM; in the assay on SR leukemia it was 4.76 µM; in the assay with HOP-92 NSCLC it was 4 µM; in the assay with SF-539 CNS, 3.9 µM. For the same compound, the TGI in the assay with OVCAR-5 ovarian was 3.89 µM; with MDA-MB-435, 4.43 µM; with SF-268 CNS, 4.99 µM; with DU-145 prostate, 4.61 µM.
As for `O=C1CC(c2ccccc2)NCCCCN2CC(CN1)C(C(O)c1ccccc1)C2=O` (stereo not drawn), the TGI in the assay on NCI-H226 lung, in the assay on OVCAR-4 ovarian, in the assay on A498 renal, in the assay with SR leukemia, with HOP-92 NSCLC and with SF-539 CNS was > 100 µM in each case. Besides, the TGI in the assay on OVCAR-5 ovarian, in the assay with MDA-MB-435, in the assay with SF-268 CNS and in the assay on DU-145 prostate was > 100 µM in each case.
In the case of `Nc1ccc([As](=O)(O)O)cc1`, the TGI in the assay with NCI-H226 lung, in the assay with OVCAR-4 ovarian, in the assay on A498 renal, with SR leukemia, with HOP-92 NSCLC and in the assay on SF-539 CNS was > 100 µM each time. Also, the TGI in the assay with OVCAR-5 ovarian, in the assay on MDA-MB-435, with SF-268 CNS and in the assay with DU-145 prostate was > 100 µM throughout.
